The values below come from patent publication US9886545B2, “Interrogatory cell-based assays and uses thereof” (Berg LLC, priority 2011, dated 2018).

Series [1] concerns the target FASN (Mus musculus, UniProt P19096). Particulars: Loftus et al 2000; cited from earlier work.
The test system of series [2] is Bcl2 in normal fibroblast. As to the kind of experiment: Bcl2 level in normal fibroblast with VEGF co-administration. Format: cell-based. An excerpt: (§1) The term “Multidimensional Intracellular Molecule (MIM)”, is an isolated version or synthetically produced version of an endogenous molecule that is naturally produced by the body and/or is present in at least one cell of a human. A MIM is capable of entering a cell and the entry into the cell includes complete or partial entry into the cell as long as the biologically active portion of the molecule wholly enters the cell. MIMs are capable of inducing a signal transduction and/or gene expression mechanism within a cell. MIMs are multidimensional because the molecules have both a therapeutic and a carrier, e.g., drug delivery, effect. MIMs also are multidimensional because the molecules act one way in a disease state and a different way in a normal state. For example, in the case of CoQ-10, administration of CoQ-10 to a melanoma cell in the presence of VEGF leads to a decreased level of Bcl2 which, in turn, leads to a decreased oncogenic potential for the melanoma cell. In contrast, in a normal fibroblast, co-administration of CoQ-10 and VEFG has no effect on the levels of Bcl2.

Series [3] has as its system LDHA expression in HepG2 cells. Description: Wet lab validation of LDHA expression in HepG2 cells. Format: cell-based. The settings on record: 50 uM or 100 uM CoQ10 for 24 or 48 hours. The procedure:
Protein accession number P00338 is LDHA. Wet lab validation of proteomics data were performed for LDHA expression in HepG2 cells (see FIG. 20).

The subject of series [4] is Bcl2 in melanoma cell. Description: Bcl2 level in melanoma cell in the presence of VEGF. It is filed as cell-based.
Source text: as §1

For series [5], the system named is human mitochondrial energy metabolism genes. Description: Transcriptional profiling of diabetic cardiomyocytes. Format: cell-based. Particulars: diabetic cardiomyocytes treated with diabetic drug plus rescue molecule (T+R) vs untreated (UT). The procedure: Human cardiomyocytes were subject to conditions simulating an diabetic environment experienced by the disease-relevant cells in vivo. Specifically, the cells were exposed to hyperglycemic conditions and hyperlipidemia conditions. The hyperglycemic condition was induced by culturing cells in media containing 22 mM glucose. The hyperlipidemia condition was induced by culturing the cells in media containing 1 mM L-carnitine, 0.7 mM Oleic acid and 0.7 mM Linoleic acid. […]
iProfiling of changes in total cellular protein expression by quantitative proteomics was performed for cell and media samples collected for each condition and with each “environmental perturbation”, i.e, diabetic drug treatment, Coenzyme Q10 treatment or both, using the techniques described above in the detailed description. […] Following data collection (Ct), the final fold change over control was determined using the δCt method as outlined in manufacturer's protocol. […] Functional assays such as Oxygen consumption rate OCR were measured by employing the Seahorse analyzer essentially as recommended by the manufacturer. OCR was recorded by the electrodes in a 7 μl chamber created with the cartridge pushing against the seahorse culture plate. […]

Sequence of FASN (P19096 whole entry): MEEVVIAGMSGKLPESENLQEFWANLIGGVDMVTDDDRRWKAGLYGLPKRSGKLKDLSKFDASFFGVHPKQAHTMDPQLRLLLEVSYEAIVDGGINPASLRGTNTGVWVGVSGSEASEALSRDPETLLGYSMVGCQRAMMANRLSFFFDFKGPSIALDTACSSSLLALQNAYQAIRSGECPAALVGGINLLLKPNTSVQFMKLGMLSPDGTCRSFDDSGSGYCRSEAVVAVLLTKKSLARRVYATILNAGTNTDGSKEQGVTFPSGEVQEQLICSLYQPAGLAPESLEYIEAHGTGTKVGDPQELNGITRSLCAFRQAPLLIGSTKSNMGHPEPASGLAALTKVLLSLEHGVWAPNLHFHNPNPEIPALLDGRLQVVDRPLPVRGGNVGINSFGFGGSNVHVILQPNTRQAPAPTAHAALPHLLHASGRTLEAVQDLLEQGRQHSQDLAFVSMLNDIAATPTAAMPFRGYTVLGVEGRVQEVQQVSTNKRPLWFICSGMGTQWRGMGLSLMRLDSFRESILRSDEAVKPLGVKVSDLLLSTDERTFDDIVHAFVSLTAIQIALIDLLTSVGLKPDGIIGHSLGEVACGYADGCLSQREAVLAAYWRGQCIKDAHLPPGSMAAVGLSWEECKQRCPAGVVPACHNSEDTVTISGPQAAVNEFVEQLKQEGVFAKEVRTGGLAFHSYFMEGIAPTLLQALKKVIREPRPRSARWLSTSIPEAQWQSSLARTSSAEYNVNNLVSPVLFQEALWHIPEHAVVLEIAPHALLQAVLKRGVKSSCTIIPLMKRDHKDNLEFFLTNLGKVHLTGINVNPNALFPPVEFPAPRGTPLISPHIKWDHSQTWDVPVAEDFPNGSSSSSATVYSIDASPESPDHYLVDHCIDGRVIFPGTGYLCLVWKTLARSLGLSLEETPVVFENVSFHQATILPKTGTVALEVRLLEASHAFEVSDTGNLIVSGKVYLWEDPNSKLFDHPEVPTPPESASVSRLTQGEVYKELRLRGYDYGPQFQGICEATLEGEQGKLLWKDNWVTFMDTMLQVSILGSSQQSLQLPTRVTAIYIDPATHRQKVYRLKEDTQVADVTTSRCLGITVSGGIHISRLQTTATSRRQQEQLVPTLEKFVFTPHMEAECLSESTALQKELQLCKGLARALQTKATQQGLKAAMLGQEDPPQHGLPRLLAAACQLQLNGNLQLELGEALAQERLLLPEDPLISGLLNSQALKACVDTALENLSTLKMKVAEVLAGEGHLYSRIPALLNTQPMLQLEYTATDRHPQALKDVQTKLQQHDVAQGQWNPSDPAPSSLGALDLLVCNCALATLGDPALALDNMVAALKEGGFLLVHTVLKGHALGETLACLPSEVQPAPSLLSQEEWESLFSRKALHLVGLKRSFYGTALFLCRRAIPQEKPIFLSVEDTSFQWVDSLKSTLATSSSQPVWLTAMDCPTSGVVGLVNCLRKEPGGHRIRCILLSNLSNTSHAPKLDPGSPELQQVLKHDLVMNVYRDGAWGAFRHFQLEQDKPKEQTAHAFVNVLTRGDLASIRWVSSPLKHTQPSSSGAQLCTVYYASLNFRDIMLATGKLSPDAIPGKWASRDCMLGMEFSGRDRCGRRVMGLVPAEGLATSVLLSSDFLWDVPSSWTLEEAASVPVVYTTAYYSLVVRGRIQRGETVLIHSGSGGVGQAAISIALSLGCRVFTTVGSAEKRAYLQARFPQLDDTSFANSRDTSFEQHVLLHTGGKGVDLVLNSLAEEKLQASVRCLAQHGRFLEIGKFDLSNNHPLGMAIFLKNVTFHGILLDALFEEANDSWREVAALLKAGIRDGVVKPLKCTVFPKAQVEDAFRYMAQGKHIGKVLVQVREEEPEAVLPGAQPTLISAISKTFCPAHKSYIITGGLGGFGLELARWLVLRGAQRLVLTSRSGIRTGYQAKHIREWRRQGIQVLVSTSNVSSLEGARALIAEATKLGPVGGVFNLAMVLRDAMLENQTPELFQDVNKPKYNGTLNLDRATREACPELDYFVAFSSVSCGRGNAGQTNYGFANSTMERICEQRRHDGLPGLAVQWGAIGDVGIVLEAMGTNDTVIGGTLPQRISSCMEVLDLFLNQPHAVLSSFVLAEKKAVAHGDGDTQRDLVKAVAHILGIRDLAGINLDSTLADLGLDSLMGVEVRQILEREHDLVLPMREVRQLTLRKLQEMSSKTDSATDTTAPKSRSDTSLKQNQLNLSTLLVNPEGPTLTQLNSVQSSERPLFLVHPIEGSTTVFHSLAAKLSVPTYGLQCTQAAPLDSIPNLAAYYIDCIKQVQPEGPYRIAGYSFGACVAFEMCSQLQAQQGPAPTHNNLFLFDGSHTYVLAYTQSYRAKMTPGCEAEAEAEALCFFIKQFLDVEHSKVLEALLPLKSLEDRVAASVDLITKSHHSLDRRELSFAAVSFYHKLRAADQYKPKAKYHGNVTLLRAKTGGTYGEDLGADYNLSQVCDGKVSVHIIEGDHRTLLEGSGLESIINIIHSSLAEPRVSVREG

Turning to `C=C1C(=O)OC(CCCCCCCC)C1C(=O)O` (stereo not drawn) [C75], in series [1], the food intake result is “reducing” and the weight loss entry is recorded as “effectuate weight loss”.
`C/C=C/C/C=C/CCC(=O)[C@H]1O[C@H]1C(N)=O` [Cerulenin]: in series [1], the food intake result is “reducing” and the weight loss entry is “effectuate weight loss”.
With `COC1=C(OC)C(=O)C(C/C=C(\C)CC/C=C(\C)CC/C=C(\C)CC/C=C(\C)CC/C=C(\C)CC/C=C(\C)CC/C=C(\C)CC/C=C(\C)CC/C=C(\C)CCC=C(C)C)=C(C)C1=O` [Coenzyme Q10], the “levels of Bcl2” value in series [2] is given as “no effect”. In addition, the LDHA expression levels result in series [3] was “decreased”. The “level of Bcl2” value in series [4] is “decreased”. In addition, the results for the “gene expression and transcription of mitochondrial energy metabolism genes, rescue” value in series [5] and in series [5] (listed as R) were “normalize” and “normalizes”, respectively.
